# Source: patent publication US20230173029A1, “TREATMENT OF CARDIAC REMODELLING” (UNIVERSITETET I OSLO, priority 2020, published 2023)
# Columns and labels:
# Type in all cases: in vivo, rat
# [1] = system: Dahl salt-sensitive (Dahl/SS) male rats; experiment: Transthoracic echocardiography of cardiac structure and function in hypertensive Dahl/SS rats; details: for E/A (ratio E wave to A wave) / EF (ejection fraction) / FS (fractional shortening) / IVS; d (inter-ventricular septum, diastole) / IVS; s (inter-ventricular septum, systole) / LA (left atrium diameter) / LV Mass (left ventricular mass) / LV Vol; d (left ventricular volume, diastole) / LV Vol; s (left ventricular volume, systole) / LVPW; d (left ventricular posterior wall, diastole) / LVPW; s (left ventricular posterior wall, systole) / RWT (relative wall thickness): HT Dahl/SS rats on high salt diet, at 6 weeks, mean ± SEM
# Procedure: (§1) A total of 29 adult Dahl salt-sensitive (Dahl/SS) male rats with an initial weight of 150 to 200 g were included in the study. Rats were purchased from Charles River Laboratories (USA) and housed in a room with a 12/12-hour light cycle, a temperature of 21° C., and a humidity of 55%. Rats were maintained on a normal salt diet up to seven weeks of age. Twenty-two Dahl/SS were then randomly switched to a high salt diet for 6 weeks to induce hypertension, whilst 7 rats were kept normotensive (NT) on normal salt diet. Drinking water and food was provided ad libitum.
# After 2 weeks of high salt diet, 15 hypertensive (HT) rats were started on treatment with proANP31-67. Rats treated with proANP31-67 received one of two dosages: 50 ng/kg/day (n=8) or 100 ng/kg/day (n=7). A total of 14 rats received only vehicle: control rats on a normal salt diet (n=7); and HT rats on a high salt diet (n=7). Rats were randomly assigned to the 3 groups (i.e. control normal salt; high salt untreated; high salt plus treatment).
# Drug or vehicle was delivered via Alzet osmotic mini-pumps (Model 2004; mean pumping rate […], mean fill volume […]) implanted subcutaneously (as instructed by the manufacturer) for 28 days. Animals were treated with buprenorphine (0.05 mg/kg s.c.) as analgesic 30 minutes before and up to 1 day following implantation of pumps.
# Cardiac function was assessed by transthoracic echocardiography using a VEVO 2100 high resolution in vivo imaging system from VisualSonics (Canada). Briefly, animals were maintained under anesthesia (1.5-2% isoflurane mixed with oxygen) on a pre-warmed ECG transducer pad with body temperature and ECG monitored. Measurements were made with an MS250 transducer, frequency set at 24 MHz. M-mode in the parasternal long axis view was performed to assess the function and dimension of the left ventricle and left atrium. LVEF was calculated as 100×((LV Vol;d−LV Vol;s)/LV Vol;d). LV mass was estimated by the formula: 1.053×((LVID;d+LVPW;d+IVS;d)3−LVID;d3). Relative wall thickness (RWT) was calculated as 2×LVPW;d/LVID;d.21 Normal geometry of the heart was defined as the 95th percentile for both LV Mass and RWT of the NT group. E and A waves in left ventricular filling velocities were assessed via pulsed-wave Doppler in a parasternal long axis view. Echocardiographic analysis were performed by an operator blinded to treatment group.
# Experiments were performed as described above in Example 1, using a group of 8 Dahl/SS rats which, at 7 weeks of age, were switched to a high salt diet as described above. After 2 weeks of high salt diet, this group was started on proANP31-67 treatment. The rats were administered proANP31-67 at a renal sub-therapeutic dosage of 25 ng/kg/day.
# [2] = system: SMAD2; experiment: Western blot of nuclear phosphorylated SMAD2 in left ventricle tissue; details: HT Dahl/SS rats, 50 or 100 ng/kg/day s.c. (pooled), FIG. 2E
# Procedure: as §1
# (§2) After 2 weeks of high salt diet, 15 hypertensive (HT) rats were started on treatment with proANP31-67. […]
# Enriched nuclear protein fraction from left ventricle tissue was isolated using Compartment Protein Extraction Kit (Merck Millipore, Cat. #2145), according to the manufacturer's specifications. Protein concentration was measured by BCA assay kit (Thermo Fisher Scientific, Cat. #23225). […] Membranes were analysed with rabbit anti-SMAD2/3 (1:1000, Cell Signaling Technology, Cat. #8685) and rabbit anti-phospho-SMAD2 (Ser465/467) (1:500, Cell Signaling Technology, Cat. #3108). The membranes were developed using the ECL system (Pierce Protein Research Products) and ChemiDoc XRS (Bio-Rad), and quantified using Image Lab™ software (version 6.0.1, Bio-Rad).
# [3] = system: Dahl salt-sensitive (Dahl/SS) male rats; experiment: Histochemistry of left ventricle collagen deposition (Masson's trichrome) and collagen cross-linking (Picrosirius Red); details: HT Dahl/SS rats, 50 or 100 ng/kg/day s.c. (pooled), not significant, FIG. 2
# Procedure: as §1, §2
# Hearts were excised, rinsed in PBS, quickly blotted on gauze, and then fixed in 10% formalin for a minimum of 24 hr. […] Stained sections were scanned (20× magnification) with AxioScan Z1 (Carl Zeiss), to obtain whole cross-sections for collagen quantification. Total fibrosis area (%) and perivascular fibrosis (ratio of the area of fibrosis surrounding the vessel wall to the lumen area) were quantified using ZEN2 blue edition (Zeiss, Jena, Germany). […] The degree of cross-linked collagen was calculated as the ratio between cross-linked collagen and total collagen. All histological quantifications were independently performed by three trained researchers blinded to rat groups.
# [4] = 50 or 100 ng/kg/day s.c. (pooled) for 28 days
substance,measurement,setting,value
"proANP31-67: Human proANP31-67, linear peptide fragment of proANP consisting of SEQ ID NO: 1; also known as vessel dilator, VSDL (EVVPPQVLSEPNEEAGAALSPLPEVPPWTGEVSPAQR; listed as Homo sapiens)",E/A (ratio E wave to A wave),[1]; 25 ng/kg/day s.c.,1.47 ± 0.08
same,EF (ejection fraction),[1]; 25 ng/kg/day s.c.,79.6 ± 1.6%
same,FS (fractional shortening),[1]; 25 ng/kg/day s.c.,49.89 ± 1.7%
same,"IVS; d (inter-ventricular septum, diastole)",[1]; 25 ng/kg/day s.c.,1.67 ± 0.03 mm
same,"IVS; s (inter-ventricular septum, systole)",[1]; 25 ng/kg/day s.c.,3.12 ± 0.10 mm
same,LA (left atrium diameter),[1]; 25 ng/kg/day s.c.,4.13 ± 0.17 mm
same,LV Mass (left ventricular mass),[1]; 25 ng/kg/day s.c.,872.5 ± 22.5 mg
same,"LV Vol; d (left ventricular volume, diastole)",[1]; 25 ng/kg/day s.c.,288.5 ± 15.4 µL
same,"LV Vol; s (left ventricular volume, systole)",[1]; 25 ng/kg/day s.c.,59.44 ± 6.2 µL
same,"LVPW; d (left ventricular posterior wall, diastole)",[1]; 25 ng/kg/day s.c.,1.67 ± 0.04 mm
same,"LVPW; s (left ventricular posterior wall, systole)",[1]; 25 ng/kg/day s.c.,2.81 ± 0.08 mm
same,RWT (relative wall thickness),[1]; 25 ng/kg/day s.c.,0.46 ± 0.02
same,E/A (ratio E wave to A wave),[1]; [4],1.6 ± 0.1
same,EF (ejection fraction),[1]; [4],78.2 ± 1.9%
same,FS (fractional shortening),[1]; [4],48.7 ± 1.8%
same,"IVS; d (inter-ventricular septum, diastole)",[1]; [4],1.7 ± 0.0 mm
same,"IVS; s (inter-ventricular septum, systole)",[1]; [4],3.1 ± 0.0 mm
same,LA (left atrium diameter),[1]; [4],4.2 ± 0.1 mm
same,LV Mass (left ventricular mass),[1]; [4],891.7 ± 12.9 mg
same,"LV Vol; d (left ventricular volume, diastole)",[1]; [4],265.1 ± 12.4 µL
same,"LV Vol; s (left ventricular volume, systole)",[1]; [4],58.0 ± 6.3 µL
same,"LVPW; d (left ventricular posterior wall, diastole)",[1]; [4],1.8 ± 0.0
same,"LVPW; s (left ventricular posterior wall, systole)",[1]; [4],2.9 ± 0.1
same,RWT (relative wall thickness),[1]; [4],0.52 ± 0.02
same,diastolic function as defined by E/A ratio,"[1]; HT Dahl/SS rats, 25 ng/kg/day s.c., FIG. 5C",preserved diastolic function
same,change in LA diameter,"[1]; HT Dahl/SS rats, 25 ng/kg/day s.c., FIG. 5D",much smaller change in LA diameter than the untreated HT group
same,proportion of treated HT rats displaying normal cardiac geometry,"[1]; HT Dahl/SS rats, 25 ng/kg/day s.c., FIG. 5E",all
same,"E/A ratio, relative fold change to NT controls","[1]; HT Dahl/SS rats, 50 or 100 ng/kg/day s.c. (pooled), FIG. 1C",preserved
same,left atrium diameter larger compared to NT rats,"[1]; HT Dahl/SS rats, 50 or 100 ng/kg/day s.c. (pooled), FIG. 1D",about 10%
same,proportion of treated HT rats showing normal geometry (LV mass and RWT),"[1]; HT Dahl/SS rats, 50 or 100 ng/kg/day s.c. (pooled), FIG. 1E",approximately 70%
same,SMAD2 phosphorylation (nuclear) compared to untreated HT rats,[2],significantly lower
same,increase of interstitial LV fibrosis compared to NT rats,[3],14%
same,increase of perivascular LV fibrosis compared to NT rats,[3],35%
